Reference: US9340590B2 (priority 2011, dated 2016)
Read-outs that look alike come from different tables or passages of the source. Positions of bridges follow the written chain, without caps; N, C: chain ends. Residues, ends and D or L forms follow the SMILES beside them.

Legend:
Test in all cases: cell-based
[1] = target: hNav1.3 (Homo sapiens, UniProt Q9NY46); settings: IonWorks Quattro, read-out: IWQ Use Nav1.3
[2] = target: hNav1.5 (Homo sapiens, UniProt Q14524)
[3] = target: hNav1.7 (Homo sapiens, UniProt Q15858); assay type: cell-based

Sequence of hNav1.5 (Q14524 whole entry, looked up): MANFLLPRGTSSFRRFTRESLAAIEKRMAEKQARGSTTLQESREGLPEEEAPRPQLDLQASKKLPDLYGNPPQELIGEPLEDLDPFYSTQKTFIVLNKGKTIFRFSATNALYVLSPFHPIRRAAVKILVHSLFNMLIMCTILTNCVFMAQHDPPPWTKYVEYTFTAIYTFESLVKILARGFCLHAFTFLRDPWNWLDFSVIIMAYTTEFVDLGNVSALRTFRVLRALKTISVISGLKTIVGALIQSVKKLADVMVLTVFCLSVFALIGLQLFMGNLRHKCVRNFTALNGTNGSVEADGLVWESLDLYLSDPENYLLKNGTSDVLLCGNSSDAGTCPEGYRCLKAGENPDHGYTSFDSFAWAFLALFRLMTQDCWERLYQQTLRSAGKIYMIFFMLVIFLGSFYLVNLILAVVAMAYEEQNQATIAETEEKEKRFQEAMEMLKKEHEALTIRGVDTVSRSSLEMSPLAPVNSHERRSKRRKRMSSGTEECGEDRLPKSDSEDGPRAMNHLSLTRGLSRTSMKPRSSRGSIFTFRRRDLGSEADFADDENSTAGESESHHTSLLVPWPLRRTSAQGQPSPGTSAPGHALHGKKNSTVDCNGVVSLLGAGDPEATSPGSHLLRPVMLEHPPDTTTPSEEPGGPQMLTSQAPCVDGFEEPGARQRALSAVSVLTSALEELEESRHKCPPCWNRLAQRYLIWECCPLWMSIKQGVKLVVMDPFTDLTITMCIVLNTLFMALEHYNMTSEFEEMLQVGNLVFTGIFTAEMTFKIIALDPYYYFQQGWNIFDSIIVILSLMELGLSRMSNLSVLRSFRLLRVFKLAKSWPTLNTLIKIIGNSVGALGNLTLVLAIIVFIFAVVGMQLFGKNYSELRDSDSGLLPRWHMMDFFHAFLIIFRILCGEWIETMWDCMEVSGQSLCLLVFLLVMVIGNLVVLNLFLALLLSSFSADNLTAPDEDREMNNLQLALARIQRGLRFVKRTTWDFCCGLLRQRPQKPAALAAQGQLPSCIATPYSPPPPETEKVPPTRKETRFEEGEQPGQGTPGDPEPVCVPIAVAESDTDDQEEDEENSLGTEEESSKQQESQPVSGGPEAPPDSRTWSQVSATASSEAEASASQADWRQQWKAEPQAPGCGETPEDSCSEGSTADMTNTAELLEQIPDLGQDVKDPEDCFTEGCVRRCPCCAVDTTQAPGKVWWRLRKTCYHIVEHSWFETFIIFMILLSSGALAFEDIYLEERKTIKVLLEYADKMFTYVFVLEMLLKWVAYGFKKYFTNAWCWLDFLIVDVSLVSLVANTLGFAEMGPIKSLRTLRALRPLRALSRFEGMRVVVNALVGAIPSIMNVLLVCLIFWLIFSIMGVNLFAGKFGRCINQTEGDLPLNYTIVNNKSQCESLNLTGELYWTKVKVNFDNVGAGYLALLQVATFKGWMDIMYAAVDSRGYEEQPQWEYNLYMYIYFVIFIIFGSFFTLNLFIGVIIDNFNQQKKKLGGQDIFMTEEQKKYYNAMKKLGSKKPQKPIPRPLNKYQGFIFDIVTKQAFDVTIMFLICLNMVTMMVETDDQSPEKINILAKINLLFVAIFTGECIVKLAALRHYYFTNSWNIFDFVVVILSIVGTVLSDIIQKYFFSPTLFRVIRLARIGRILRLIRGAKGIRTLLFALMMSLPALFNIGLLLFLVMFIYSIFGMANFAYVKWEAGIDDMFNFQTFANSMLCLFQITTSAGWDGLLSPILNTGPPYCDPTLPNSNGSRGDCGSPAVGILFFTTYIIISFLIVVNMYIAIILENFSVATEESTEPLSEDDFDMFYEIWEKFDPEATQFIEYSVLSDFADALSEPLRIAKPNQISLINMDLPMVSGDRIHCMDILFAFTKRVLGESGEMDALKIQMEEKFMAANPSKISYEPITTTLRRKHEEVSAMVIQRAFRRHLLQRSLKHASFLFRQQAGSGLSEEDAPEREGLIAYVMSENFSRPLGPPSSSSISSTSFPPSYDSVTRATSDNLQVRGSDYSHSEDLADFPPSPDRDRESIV
Sequence of hNav1.3 (Q9NY46 whole entry, looked up): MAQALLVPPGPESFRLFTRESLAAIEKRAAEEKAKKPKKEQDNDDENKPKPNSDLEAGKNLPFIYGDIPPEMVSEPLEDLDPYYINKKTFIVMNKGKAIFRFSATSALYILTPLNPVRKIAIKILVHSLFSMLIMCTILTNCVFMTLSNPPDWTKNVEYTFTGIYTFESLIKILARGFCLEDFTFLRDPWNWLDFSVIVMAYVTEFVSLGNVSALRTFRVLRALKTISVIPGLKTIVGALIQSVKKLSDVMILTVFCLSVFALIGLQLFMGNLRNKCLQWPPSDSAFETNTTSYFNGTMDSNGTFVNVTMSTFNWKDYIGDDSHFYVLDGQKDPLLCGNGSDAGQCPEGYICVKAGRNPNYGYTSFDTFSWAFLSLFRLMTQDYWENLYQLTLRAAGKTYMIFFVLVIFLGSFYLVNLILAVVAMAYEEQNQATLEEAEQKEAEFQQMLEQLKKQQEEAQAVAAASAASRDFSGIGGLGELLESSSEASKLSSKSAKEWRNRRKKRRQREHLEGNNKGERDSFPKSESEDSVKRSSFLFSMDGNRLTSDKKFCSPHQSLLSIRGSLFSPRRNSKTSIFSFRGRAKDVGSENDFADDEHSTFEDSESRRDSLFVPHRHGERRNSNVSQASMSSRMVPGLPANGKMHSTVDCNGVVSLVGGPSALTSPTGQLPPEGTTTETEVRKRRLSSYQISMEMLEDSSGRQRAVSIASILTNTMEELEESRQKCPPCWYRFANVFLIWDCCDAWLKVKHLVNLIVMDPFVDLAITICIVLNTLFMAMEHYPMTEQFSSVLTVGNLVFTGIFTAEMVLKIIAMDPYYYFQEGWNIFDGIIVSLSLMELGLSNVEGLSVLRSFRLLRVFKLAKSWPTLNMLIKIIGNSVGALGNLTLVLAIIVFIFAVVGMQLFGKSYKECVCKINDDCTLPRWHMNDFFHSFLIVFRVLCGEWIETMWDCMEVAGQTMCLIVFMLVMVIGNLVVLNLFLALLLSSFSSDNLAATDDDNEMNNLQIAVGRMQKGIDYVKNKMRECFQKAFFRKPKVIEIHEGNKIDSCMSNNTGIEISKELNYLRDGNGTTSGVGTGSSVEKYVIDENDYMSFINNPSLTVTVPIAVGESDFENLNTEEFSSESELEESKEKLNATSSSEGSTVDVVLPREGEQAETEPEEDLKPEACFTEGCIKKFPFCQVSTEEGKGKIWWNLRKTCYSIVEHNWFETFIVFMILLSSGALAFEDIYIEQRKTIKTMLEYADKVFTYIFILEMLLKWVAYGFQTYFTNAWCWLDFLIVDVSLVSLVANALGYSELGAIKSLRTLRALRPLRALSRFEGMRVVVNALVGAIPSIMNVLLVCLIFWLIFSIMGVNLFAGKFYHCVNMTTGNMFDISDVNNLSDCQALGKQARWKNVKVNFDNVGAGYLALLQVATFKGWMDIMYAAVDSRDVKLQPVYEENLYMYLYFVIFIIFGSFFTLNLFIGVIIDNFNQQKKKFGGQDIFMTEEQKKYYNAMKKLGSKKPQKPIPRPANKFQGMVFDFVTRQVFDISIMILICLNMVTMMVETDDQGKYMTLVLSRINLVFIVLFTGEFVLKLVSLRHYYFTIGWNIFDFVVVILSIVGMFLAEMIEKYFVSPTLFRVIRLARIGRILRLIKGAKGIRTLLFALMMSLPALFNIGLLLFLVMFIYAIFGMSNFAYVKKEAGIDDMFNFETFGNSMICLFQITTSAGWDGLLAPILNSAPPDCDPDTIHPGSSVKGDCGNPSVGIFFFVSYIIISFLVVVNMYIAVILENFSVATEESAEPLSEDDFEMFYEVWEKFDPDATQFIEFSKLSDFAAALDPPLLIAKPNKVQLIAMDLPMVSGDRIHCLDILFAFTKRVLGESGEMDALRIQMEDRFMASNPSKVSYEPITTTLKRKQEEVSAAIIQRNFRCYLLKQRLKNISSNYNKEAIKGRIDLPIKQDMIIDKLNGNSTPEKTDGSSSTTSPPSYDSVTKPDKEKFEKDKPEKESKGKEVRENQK

## CC[C@H](C)[C@@H]1NC(=O)[C@@H]2CSSC[C@@H]3NC(=O)[C@H](C(C)C)NC(=O)[C@H](CC(C)C)NC(=O)[C@H](CC(N)=O)NC(=O)[C@@H]4CCCN4C(=O)[C@H](CCCNC(=N)N)NC(=O)[C@H](CSSC[C@H](NC(=O)[C@@H](N)CC(=O)O)C(=O)N[C@@H](CC(C)C)C(=O)NCC(=O)N[C@@H](Cc4ccccc4)C(=O)N[C@@H](CCSC)C(=O)N[C@@H](CCCNC(=N)N)C(=O)N[C@@H](CCCCN)C(=O)N2)NC(=O)[C@H](CSSC[C@@H](C(=O)N[C@@H](CCCCN)C(=O)N[C@@H](Cc2ccc(O)cc2)C(=O)N[C@H](C(=O)N[C@@H](Cc2ccccc2)C(=O)N[C@@H](CCCCN)C(N)=O)C(C)C)NC(=O)[C@H](Cc2c[nH]c4ccccc24)NC(=O)[C@H](CCCCN)NC(=O)[C@H](Cc2c[nH]cn2)NC(=O)[C@H]([C@@H](C)O)NC(=O)[C@H](CCCNC(=N)N)NC(=O)[C@H](CO)NC3=O)NC(=O)[C@H](CCCCN)NC(=O)[C@H](CC(=O)O)NC(=O)[C@H](CC(N)=O)NC(=O)[C@H](CC(=O)O)NC(=O)[C@@H]2CCCN2C1=O [compound 60]
[1]; use-dependent, […]
  IC50: 210 nM
[2]; IonWorks Quattro, use-dependent, […], read-out: IWQ Use Nav1.5
  IC50: 12.5 µM
[3]; IonWorks Quattro, use-dependent, […], read-out: IWQ Use Nav1.7 (μm)
  IC50: 590 nM

## CSCC[C@@H]1NC(=O)[C@H](Cc2ccccc2)NC(=O)CNC(=O)[C@H](CC(C)C)NC(=O)[C@@H](NC(=O)[C@@H](N)CC(=O)O)CSSC[C@@H]2NC(=O)[C@@H]3CSSC[C@@H](C(=O)N[C@@H](CCCCN)C(=O)N[C@@H](Cc4ccc(O)cc4)C(=O)N[C@H](C(=O)N[C@@H](Cc4ccccc4)C(N)=O)C(C)C)NC(=O)[C@H](Cc4c[nH]c5ccccc45)NC(=O)[C@H](CCCCN)NC(=O)[C@H](Cc4cnc[nH]4)NC(=O)[C@H]([C@@H](C)O)NC(=O)[C@H](CCCNC(=N)N)NC(=O)[C@H](CO)NC(=O)[C@H](CSSC[C@H](NC(=O)[C@H](CCCCN)NC(=O)[C@H](CCCNC(=N)N)NC1=O)C(=O)N[C@@H](CCCNC(=N)N)C(=O)N1CCC[C@H]1C(=O)N[C@@H](CC(=O)O)C(=O)N[C@@H](CC(N)=O)C(=O)N[C@@H](CC(=O)O)C(=O)N[C@@H](CCCCN)C(=O)N3)NC(=O)[C@H](C(C)C)NC(=O)[C@H](CC(C)C)NC(=O)[C@H](CC(N)=O)NC(=O)[C@@H]1CCCN1C(=O)[C@H](CCCNC(=N)N)NC2=O [compound 66] (H-DCLGFMRKCRPDNDKCCRPNLVCSRTHKWCKYVF-NH2; disulfide 2-17, 9-23, 16-30)
[1]; Use
  IC50: 110 nM
[2]; IonWorks Quattro, Use, read-out: IWQ Use Nav1.5
  IC50: 15.2 µM
[3]
  IC50: 160 nM

## CC[C@H](C)[C@@H]1NC(=O)[C@@H]2CSSC[C@@H]3NC(=O)[C@H](C(C)C)NC(=O)[C@H](CC(C)C)NC(=O)[C@H](CC(N)=O)NC(=O)[C@@H]4CCCN4C(=O)[C@H](CCCNC(=N)N)NC(=O)[C@H](CSSC[C@H](NC(=O)[C@@H](N)CC(=O)O)C(=O)N[C@@H](CC(C)C)C(=O)NCC(=O)N[C@@H](Cc4ccccc4)C(=O)N[C@@H](CCSC)C(=O)N[C@@H](CCCNC(=N)N)C(=O)N[C@@H](CCCCN)C(=O)N2)NC(=O)[C@H](CSSC[C@@H](C(=O)N[C@@H](CCCCN)C(=O)N[C@@H](Cc2ccc(O)cc2)C(=O)N[C@H](C(=O)N[C@@H](Cc2ccccc2)C(N)=O)C(C)C)NC(=O)[C@H](Cc2c[nH]c4ccccc24)NC(=O)[C@H](CCCCN)NC(=O)[C@H](Cc2cnc[nH]2)NC(=O)[C@H]([C@@H](C)O)NC(=O)[C@H](CCCNC(=N)N)NC(=O)[C@H](CO)NC3=O)NC(=O)[C@H](CCCNC(=N)N)NC(=O)[C@H](CC(=O)O)NC(=O)[C@H](CC(N)=O)NC(=O)[C@H](CC(=O)O)NC(=O)[C@@H]2CCCN2C1=O [compound 68] (H-DCLGFMRKCIPDNDRCCRPNLVCSRTHKWCKYVF-NH2; disulfide 2-17, 9-23, 16-30)
[1]; Use
  IC50: 140 nM
[2]; IWQ Use Nav1.5 (μM)
  IC50: 18.1 µM
[3]; IonWorks Quattro, Use, read-out: IWQ Use Nav1.7
  IC50: 200 nM

## CC[C@H](C)[C@@H]1NC(=O)[C@@H]2CSSC[C@@H]3NC(=O)[C@H](C(C)C)NC(=O)[C@H](CC(C)C)NC(=O)[C@H](CC(N)=O)NC(=O)[C@@H]4CCCN4C(=O)[C@H](CCCNC(=N)N)NC(=O)[C@H](CSSC[C@H](NC(=O)[C@@H](N)CC(=O)O)C(=O)N[C@@H](CC(C)C)C(=O)NCC(=O)N[C@@H](Cc4ccccc4)C(=O)N[C@@H](CCSC)C(=O)N[C@@H](CCCNC(=N)N)C(=O)N[C@@H](CCCCN)C(=O)N2)NC(=O)[C@H](CSSC[C@@H](C(=O)N[C@@H](CCCCN)C(=O)N[C@@H](Cc2ccc(O)cc2)C(=O)N[C@H](C(=O)N[C@@H](Cc2ccccc2)C(N)=O)C(C)C)NC(=O)[C@H](Cc2c[nH]c4ccccc24)NC(=O)[C@H](CCCCN)NC(=O)[C@H](Cc2cnc[nH]2)NC(=O)[C@H](CCCNC(=N)N)NC(=O)[C@H](CCCNC(=N)N)NC(=O)[C@H](CO)NC3=O)NC(=O)[C@H](CCCCN)NC(=O)[C@H](CC(=O)O)NC(=O)[C@H](CC(N)=O)NC(=O)[C@H](CC(=O)O)NC(=O)[C@@H]2CCCN2C1=O [compound 70] (H-DCLGFMRKCIPDNDKCCRPNLVCSRRHKWCKYVF-NH2; disulfide 2-17, 9-23, 16-30)
[1]; Table 22, use, […]
  IC50: 8 nM
[2]; IWQ Use Nav1.5 (μM)
  IC50: 3.06 µM
[3]; Table 22, IonWorks Quattro, use, […], read-out: IWQ Use Nav1.7
  IC50: 30 nM

## CC[C@H](C)[C@@H]1NC(=O)[C@@H]2CSSC[C@@H]3NC(=O)[C@H](C(C)C)NC(=O)[C@H](CC(C)C)NC(=O)[C@H](CC(N)=O)NC(=O)[C@@H]4CCCN4C(=O)[C@H](CCCNC(=N)N)NC(=O)[C@H](CSSC[C@H](NC(=O)[C@@H](N)CC(=O)O)C(=O)N[C@@H](CC(C)C)C(=O)NCC(=O)N[C@@H](Cc4ccccc4)C(=O)N[C@@H](CCSC)C(=O)N[C@@H](CCCNC(=N)N)C(=O)N[C@@H](CCCCN)C(=O)N2)NC(=O)[C@H](CSSC[C@@H](C(=O)N[C@@H](CCCCN)C(=O)N[C@@H](Cc2ccc(O)cc2)C(=O)N[C@H](C(=O)N[C@@H](Cc2ccccc2)C(N)=O)C(C)C)NC(=O)[C@H](Cc2c[nH]c4ccccc24)NC(=O)[C@H](CCCCN)NC(=O)[C@H](CCCNC(=N)N)NC(=O)[C@H]([C@@H](C)O)NC(=O)[C@H](CCCNC(=N)N)NC(=O)[C@H](CO)NC3=O)NC(=O)[C@H](CCCCN)NC(=O)[C@H](CC(=O)O)NC(=O)[C@H](CC(N)=O)NC(=O)[C@H](CC(=O)O)NC(=O)[C@@H]2CCCN2C1=O [compound 71] (H-DCLGFMRKCIPDNDKCCRPNLVCSRTRKWCKYVF-NH2; disulfide 2-17, 9-23, 16-30)
[1]; Table 23, use, […]
  IC50: 510 nM
[2]; Table 23, IonWorks Quattro, use, […], read-out: IWQ Use Nav1.5
  IC50: 5.22 µM
[3]
  IC50: 510 nM
